{
  "source": "patent US20250186510A1",
  "about": "“BACTERIAL COMPOSITION FOR USE IN TREATMENT OF SUBSTANCE USE DISORDER” (Bar-Ilan University, priority 2022, published 2025)",
  "key": {"[1]": {"test_system": "gut microbiota in feces of naïve rats", "assay": "Incubation of feces with cocaine and DHEA in vitro (16S rRNA sequencing, UniFrac, LEfSe)", "experimental": "Bacterial taxa differences in fecal samples were analyzed using the Linear discriminant analysis effect size (LEfSe) method as a response for either cocaine or DHEA (0, 50, 100 and 500 μM). Stool of naïve rats was collected into 15 ml test tubes and stored under anaerobic conditions. The stool was homogenized using a vortex and mechanical stirring. After completion of the preparation, the fecal slurry was incubated at 37° C. under anaerobic conditions. Following a week of anaerobic incubation, DNA was extracted from the slurry, and 16S rRNA gene sequencing was performed (protocols described above)."}, "[2]": {"test_system": "gut microbial community of cocaine-trained rats", "assay": "Gut microbiota throughout cocaine self-administration (beta diversity)", "conditions": "day 3 vs day 12, p=0.001"}, "[3]": {"test_system": "cocaine-seeking behavior of cocaine-trained rats", "assay": "Extinction training after cocaine self-administration, daily DHEA", "conditions": "DHEA 2 mg/kg IP daily, days 13-22, vs Coc-Vehicle"}, "[4]": {"test_system": "cocaine-seeking behavior of rats", "conditions": "cited from earlier work"}, "[5]": {"test_system": "gut microbiota of cocaine-trained rats", "assay": "Gut microbiota composition (16S rRNA sequencing, UniFrac, ANCOM) after DHEA during extinction"}},
  "note": "Entries after “also recorded” stand apart in the source; their conditions may differ.",
  "data": [
    {"smiles": "COC(=O)[C@H]1[C@@H](OC(=O)c2ccccc2)C[C@@H]2CC[C@H]1N2C", "note": "[Cocaine, benzoylmethylecgonine]", "values": [
      {"measurement": "number of overrepresented bacterial features (LEfSe)", "setting": "[1]; cocaine 100 μM vs PBS", "value": 12},
      {"measurement": "gut microbiota beta diversity (unweighted UniFrac distances) in vitro", "setting": "[1]; cocaine 100 μM vs PBS, p=0.047", "value": "significantly changed"},
      {"measurement": "number of overrepresented bacterial features (LEfSe)", "setting": "[1]; cocaine 500 μM vs PBS", "value": 15},
      {"measurement": "gut microbial community (beta diversity) over cocaine self-administration", "setting": "[2]", "value": "significant change"}
    ]},
    {"smiles": "C[C@]12CC[C@H](O)CC1=CC[C@@H]1[C@@H]2CC[C@]2(C)C(=O)CC[C@@H]12", "note": "[DHEA, dehydroepiandrosterone]", "values": [
      {"measurement": "changes in bacterial features (LEfSe)", "setting": "[1]; DHEA 50 μM", "value": "no significant changes"},
      {"measurement": "changes in bacterial features (LEfSe)", "setting": "[1]; DHEA 100 μM", "value": "no significant changes"},
      {"measurement": "gut microbiota composition (weighted UniFrac distances) in vitro", "setting": "[1]; DHEA 100 μM vs PBS, p=0.036", "value": "significant change"},
      {"measurement": "R. gnavus among overrepresented bacterial features", "setting": "[1]; DHEA 500 μM", "value": "none of them belonged to R. gnavus; also recorded: not R. gnavus"},
      {"measurement": "number of overrepresented bacterial features (LEfSe)", "setting": "[1]; DHEA 500 μM vs PBS", "value": 16},
      {"measurement": "gut microbiota composition (weighted UniFrac distances) in vitro", "setting": "[1]; DHEA 500 μM vs PBS, p=0.02", "value": "significant change"},
      {"measurement": "cocaine-seeking behavior (active lever presses) during extinction", "setting": "[3]", "value": "significantly reduced cocaine-seeking behavior"},
      {"measurement": "cocaine seeking behavior relative to maintenance levels", "setting": "[4]; chronic exogenous DHEA 2 mg/kg, previous work", "value": "< 20", "unit": "%"},
      {"measurement": "cocaine-seeking behavior, self-administration model", "setting": "[4]; pretreatment with DHEA, background", "value": "attenuated cocaine-seeking behavior"},
      {"measurement": "gut microbiota beta diversity (PCoA of unweighted UniFrac distances)", "setting": "[5]; day 22, coc-DHEA compared with saline-vehicle", "value": "resembled those of rats that received vehicle; also recorded: induces a microbiota more similar to the saline control"},
      {"measurement": "relative abundance of R. gnavus (ANCOM)", "setting": "[5]; day 22, coc-DHEA vs cocaine-vehicle", "value": "increase in the relative abundance of R. gnavus; also recorded: Levels of R. gnavus rose"}
    ]}
  ]
}
